Measurements as given in patent US10844077B2, “Thiazolyl-containing compounds for treating proliferative diseases” (Dana-Farber Cancer Institute, Inc., priority 2014, dated 2020).
Where “and” joins values, the source holds several entries; their conditions need not be identical. Equal values may be shown once.

Assays:
Assay in all cases: KINATIV assay
Assay type in all cases: cell-based
Conditions in all cases: 1 μM, 90 minutes, BCWM.1 cells
AMPKa1, AMPKa2 = tested on: AMPKa1, AMPKa2
Procedure: (§1) The cells were harvested and lysed. The lysates were directly labeled with an ATP-biotin probe. Bound kinases were identified and quantitated by ACTIVX as described in Patricelli et al., Biochemistry, 2007, 46(2): 350-358. The compounds were tested in duplicates against duplicate or quadruplicate control samples.

BARK1 = BARK1 (Homo sapiens (Human), UniProt P25098)
Procedure: as §1

BRAF = BRAF (Homo sapiens (Human), UniProt P15056)
Procedure: as §1

CDC2 = CDC2 (Homo sapiens (Human), UniProt P06493)
Procedure: as §1

CDK4 = CDK4 (Homo sapiens (Human), UniProt P11802)
Procedure: as §1

CK1a = CK1a (Homo sapiens (Human), UniProt P48729)
Procedure: as §1

CK1g2 = CK1g2 (Homo sapiens (Human), UniProt P78368)
Procedure: as §1

CK2a1 = CK2a1 (Homo sapiens (Human), UniProt P68400)
Procedure: as §1

CSK = CSK (Homo sapiens (Human), UniProt P41240)
Procedure: as §1

[1] = tested on: CaMK2a, CaMK2b, CaMK2d, CaMK2g
Procedure: as §1

Erk2 = Erk2 (Homo sapiens (Human), UniProt P28482)
Procedure: as §1

FGR = FGR (Homo sapiens (Human), UniProt P09769)
Procedure: as §1

GCN2 = GCN2 (Homo sapiens (Human), UniProt Q9P2K8)
Procedure: as §1

IKKa = IKKa (Homo sapiens (Human), UniProt O15111)
Procedure: as §1

IKKe = IKKe (Homo sapiens (Human), UniProt Q14164)
Procedure: as §1

IRAK1 = IRAK1 (Homo sapiens (Human), UniProt P51617)
Procedure: as §1

JNK1, JNK2, JNK3 = tested on: JNK1, JNK2, JNK3
Procedure: as §1

LCK = LCK (Homo sapiens (Human), UniProt P06239)
Procedure: as §1

LKB1 = LKB1 (Homo sapiens (Human), UniProt Q15831)
Procedure: as §1

MAP3K15, MAP3K5, MAP3K6 = tested on: MAP3K15, MAP3K5, MAP3K6
Procedure: as §1

MAP3K3 = MAP3K3 (Homo sapiens (Human), UniProt Q99759)
Procedure: as §1

MARK1, MARK2 = tested on: MARK1, MARK2
Procedure: as §1

MARK2 = MARK2 (Homo sapiens (Human), UniProt Q7KZI7)
Procedure: as §1

MAST3 = MAST3 (Homo sapiens (Human), UniProt O60307)
Procedure: as §1

MELK = MELK (Homo sapiens (Human), UniProt Q14680)
Procedure: as §1

MST1 = MST1 (Homo sapiens (Human), UniProt Q13043)
Procedure: as §1

NEK1 = NEK1 (Homo sapiens (Human), UniProt Q96PY6)
Procedure: as §1

NEK3 = NEK3 (Homo sapiens (Human), UniProt P51956)
Procedure: as §1

NEK6, NEK7 = tested on: NEK6, NEK7
Procedure: as §1

PAN3 = PAN3 (Homo sapiens (Human), UniProt Q58A45)
Procedure: as §1

PIK3CD = PIK3CD (Homo sapiens (Human), UniProt O00329)
Procedure: as §1

PIK3CG = PIK3CG (Homo sapiens (Human), UniProt P48736)
Procedure: as §1

PIP4K2C = PIP4K2C (Homo sapiens (Human), UniProt Q8TBX8)
Procedure: as §1

RSK1 domain2 = RSK1 domain2 (Homo sapiens (Human), UniProt Q15418)
Procedure: as §1

RSK3 domain1 = RSK3 domain1 (Homo sapiens (Human), UniProt Q15349)
Procedure: as §1

RSK4 domain1 = RSK4 domain1 (Homo sapiens (Human), UniProt Q9UK32)
Procedure: as §1

SNRK = SNRK (Homo sapiens (Human), UniProt Q9NRH2)
Procedure: as §1

TLK2 = TLK2 (Homo sapiens (Human), UniProt Q86UE8)
Procedure: as §1

Wnk1, Wnk2 = tested on: Wnk1, Wnk2
Procedure: as §1

p38b = p38b (Homo sapiens (Human), UniProt Q15759)
Procedure: as §1

p70S6Kb = p70S6Kb (Homo sapiens (Human), UniProt Q9UBS0)
Procedure: as §1

Chain of PIP4K2C (Q8TBX8 whole entry): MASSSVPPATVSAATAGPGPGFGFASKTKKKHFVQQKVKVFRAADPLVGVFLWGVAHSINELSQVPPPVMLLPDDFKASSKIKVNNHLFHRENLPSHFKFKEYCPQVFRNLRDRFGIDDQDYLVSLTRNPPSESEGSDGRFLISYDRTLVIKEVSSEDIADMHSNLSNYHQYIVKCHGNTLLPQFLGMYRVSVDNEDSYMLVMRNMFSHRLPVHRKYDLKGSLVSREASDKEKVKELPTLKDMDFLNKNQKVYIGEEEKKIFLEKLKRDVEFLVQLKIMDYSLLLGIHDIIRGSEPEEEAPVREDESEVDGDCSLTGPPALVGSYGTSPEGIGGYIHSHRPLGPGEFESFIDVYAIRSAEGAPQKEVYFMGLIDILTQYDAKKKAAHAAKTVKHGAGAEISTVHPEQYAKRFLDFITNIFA
Chain of CSK (P41240 whole entry): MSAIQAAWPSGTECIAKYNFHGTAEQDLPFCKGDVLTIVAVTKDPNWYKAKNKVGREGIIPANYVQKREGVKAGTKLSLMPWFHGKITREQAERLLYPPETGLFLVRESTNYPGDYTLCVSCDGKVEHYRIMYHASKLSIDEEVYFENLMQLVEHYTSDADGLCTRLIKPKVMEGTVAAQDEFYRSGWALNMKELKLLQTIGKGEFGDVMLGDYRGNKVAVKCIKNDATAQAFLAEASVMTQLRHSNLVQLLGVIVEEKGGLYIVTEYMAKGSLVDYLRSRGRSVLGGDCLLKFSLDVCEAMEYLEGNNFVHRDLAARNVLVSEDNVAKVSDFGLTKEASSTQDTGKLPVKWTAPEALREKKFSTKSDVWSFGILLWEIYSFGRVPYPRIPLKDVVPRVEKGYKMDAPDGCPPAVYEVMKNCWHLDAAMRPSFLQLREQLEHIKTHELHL
Chain of GCN2 (Q9P2K8 whole entry): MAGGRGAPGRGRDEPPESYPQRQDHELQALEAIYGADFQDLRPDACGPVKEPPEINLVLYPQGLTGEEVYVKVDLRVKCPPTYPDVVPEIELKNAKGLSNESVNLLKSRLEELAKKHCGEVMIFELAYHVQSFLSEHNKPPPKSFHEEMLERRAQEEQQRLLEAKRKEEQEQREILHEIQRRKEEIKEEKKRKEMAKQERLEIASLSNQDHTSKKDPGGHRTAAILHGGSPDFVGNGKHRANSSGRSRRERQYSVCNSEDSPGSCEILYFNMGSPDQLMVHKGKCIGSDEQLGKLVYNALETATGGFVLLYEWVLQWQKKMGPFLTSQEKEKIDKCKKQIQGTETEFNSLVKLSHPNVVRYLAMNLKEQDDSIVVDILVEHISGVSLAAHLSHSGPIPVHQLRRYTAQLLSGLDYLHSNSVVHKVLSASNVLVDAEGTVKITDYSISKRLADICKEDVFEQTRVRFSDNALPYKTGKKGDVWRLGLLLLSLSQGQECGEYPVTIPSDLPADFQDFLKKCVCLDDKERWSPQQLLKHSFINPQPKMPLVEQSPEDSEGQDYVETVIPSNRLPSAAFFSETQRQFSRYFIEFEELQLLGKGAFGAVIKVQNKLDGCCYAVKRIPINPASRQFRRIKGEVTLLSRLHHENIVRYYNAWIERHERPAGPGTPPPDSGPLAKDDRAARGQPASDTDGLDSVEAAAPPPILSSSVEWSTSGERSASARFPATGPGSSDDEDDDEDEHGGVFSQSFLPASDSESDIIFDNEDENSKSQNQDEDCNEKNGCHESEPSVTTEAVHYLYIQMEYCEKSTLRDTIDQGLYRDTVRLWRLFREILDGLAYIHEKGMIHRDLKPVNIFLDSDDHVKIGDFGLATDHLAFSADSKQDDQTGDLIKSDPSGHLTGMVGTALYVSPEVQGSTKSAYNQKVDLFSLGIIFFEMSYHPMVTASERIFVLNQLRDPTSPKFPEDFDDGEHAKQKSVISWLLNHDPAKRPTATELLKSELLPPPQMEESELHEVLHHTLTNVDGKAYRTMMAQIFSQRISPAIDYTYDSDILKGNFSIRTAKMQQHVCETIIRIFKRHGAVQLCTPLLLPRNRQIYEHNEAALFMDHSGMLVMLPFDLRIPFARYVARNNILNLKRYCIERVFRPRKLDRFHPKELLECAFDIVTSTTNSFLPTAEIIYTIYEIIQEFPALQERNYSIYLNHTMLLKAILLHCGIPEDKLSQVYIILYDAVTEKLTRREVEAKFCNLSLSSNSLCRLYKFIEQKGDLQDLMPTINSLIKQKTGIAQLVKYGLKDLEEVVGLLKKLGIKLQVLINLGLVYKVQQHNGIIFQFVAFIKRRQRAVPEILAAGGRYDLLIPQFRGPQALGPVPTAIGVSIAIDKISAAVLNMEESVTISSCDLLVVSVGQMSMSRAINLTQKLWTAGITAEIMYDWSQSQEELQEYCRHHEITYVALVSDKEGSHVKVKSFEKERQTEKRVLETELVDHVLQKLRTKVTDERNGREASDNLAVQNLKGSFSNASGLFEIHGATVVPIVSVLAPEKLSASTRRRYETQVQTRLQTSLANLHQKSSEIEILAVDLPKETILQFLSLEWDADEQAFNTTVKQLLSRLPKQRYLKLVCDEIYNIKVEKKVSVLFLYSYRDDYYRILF
Chain of SNRK (Q9NRH2 whole entry): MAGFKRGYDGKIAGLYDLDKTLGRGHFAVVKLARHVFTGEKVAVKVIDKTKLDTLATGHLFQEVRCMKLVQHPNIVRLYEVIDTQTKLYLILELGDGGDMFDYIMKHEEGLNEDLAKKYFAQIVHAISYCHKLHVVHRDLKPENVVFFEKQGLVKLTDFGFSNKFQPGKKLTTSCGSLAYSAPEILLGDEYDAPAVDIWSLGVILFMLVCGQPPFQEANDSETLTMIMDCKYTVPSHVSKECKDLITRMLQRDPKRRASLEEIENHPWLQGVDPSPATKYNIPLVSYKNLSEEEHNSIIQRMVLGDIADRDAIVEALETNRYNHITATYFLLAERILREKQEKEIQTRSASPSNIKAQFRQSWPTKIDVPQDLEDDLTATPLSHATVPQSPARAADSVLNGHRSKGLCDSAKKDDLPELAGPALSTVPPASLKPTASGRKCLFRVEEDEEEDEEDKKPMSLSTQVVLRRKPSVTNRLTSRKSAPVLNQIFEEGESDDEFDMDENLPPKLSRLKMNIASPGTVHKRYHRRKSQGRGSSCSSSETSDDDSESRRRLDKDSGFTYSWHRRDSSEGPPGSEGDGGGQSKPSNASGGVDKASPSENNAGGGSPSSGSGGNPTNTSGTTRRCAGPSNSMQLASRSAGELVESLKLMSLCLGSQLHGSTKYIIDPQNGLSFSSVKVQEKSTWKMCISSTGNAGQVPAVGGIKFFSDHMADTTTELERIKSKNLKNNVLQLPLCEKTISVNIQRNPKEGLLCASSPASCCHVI
Chain of PIK3CG (P48736 whole entry): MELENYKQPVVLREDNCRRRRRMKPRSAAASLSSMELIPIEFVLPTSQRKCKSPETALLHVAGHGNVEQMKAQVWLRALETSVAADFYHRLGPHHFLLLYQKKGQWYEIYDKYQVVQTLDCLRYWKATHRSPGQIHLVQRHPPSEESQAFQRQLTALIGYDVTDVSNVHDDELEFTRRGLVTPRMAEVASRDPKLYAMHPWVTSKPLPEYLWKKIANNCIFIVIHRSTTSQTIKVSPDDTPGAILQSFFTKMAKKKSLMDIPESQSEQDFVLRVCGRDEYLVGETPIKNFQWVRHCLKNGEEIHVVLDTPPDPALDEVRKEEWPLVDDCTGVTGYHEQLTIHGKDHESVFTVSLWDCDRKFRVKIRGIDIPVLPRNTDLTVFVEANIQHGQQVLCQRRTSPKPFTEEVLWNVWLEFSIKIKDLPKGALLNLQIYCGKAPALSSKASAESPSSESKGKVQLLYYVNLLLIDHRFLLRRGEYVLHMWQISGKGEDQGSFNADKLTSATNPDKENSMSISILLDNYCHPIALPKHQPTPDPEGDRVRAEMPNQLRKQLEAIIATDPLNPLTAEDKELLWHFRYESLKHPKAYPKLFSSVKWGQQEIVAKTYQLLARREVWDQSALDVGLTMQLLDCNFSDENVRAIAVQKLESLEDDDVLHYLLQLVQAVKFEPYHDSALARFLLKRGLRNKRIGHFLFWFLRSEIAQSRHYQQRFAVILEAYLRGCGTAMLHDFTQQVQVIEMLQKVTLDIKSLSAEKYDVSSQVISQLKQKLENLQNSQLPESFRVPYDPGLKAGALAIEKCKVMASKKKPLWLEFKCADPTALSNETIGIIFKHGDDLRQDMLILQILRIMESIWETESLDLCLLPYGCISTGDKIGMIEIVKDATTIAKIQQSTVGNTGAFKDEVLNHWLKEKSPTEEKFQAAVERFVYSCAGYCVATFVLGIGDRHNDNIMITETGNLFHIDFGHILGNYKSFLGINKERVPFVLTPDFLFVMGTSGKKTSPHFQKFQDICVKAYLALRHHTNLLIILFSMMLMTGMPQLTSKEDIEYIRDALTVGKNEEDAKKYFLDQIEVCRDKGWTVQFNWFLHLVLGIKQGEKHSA
Chain of MELK (Q14680 whole entry): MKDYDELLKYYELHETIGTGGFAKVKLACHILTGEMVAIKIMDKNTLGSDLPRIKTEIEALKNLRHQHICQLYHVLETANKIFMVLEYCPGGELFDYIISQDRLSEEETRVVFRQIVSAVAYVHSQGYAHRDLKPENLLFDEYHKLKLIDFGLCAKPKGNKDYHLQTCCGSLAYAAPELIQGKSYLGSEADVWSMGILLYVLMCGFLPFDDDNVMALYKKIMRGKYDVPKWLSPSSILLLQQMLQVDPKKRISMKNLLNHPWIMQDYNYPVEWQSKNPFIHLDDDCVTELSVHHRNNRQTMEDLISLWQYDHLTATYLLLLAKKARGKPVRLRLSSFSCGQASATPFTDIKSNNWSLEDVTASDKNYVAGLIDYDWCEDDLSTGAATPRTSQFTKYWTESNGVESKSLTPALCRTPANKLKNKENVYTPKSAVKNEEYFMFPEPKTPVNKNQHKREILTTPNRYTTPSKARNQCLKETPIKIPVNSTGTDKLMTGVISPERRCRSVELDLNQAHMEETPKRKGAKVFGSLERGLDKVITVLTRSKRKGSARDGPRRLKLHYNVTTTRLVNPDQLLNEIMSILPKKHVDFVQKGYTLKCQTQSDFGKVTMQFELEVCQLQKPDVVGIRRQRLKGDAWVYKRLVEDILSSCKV

## C=CC(=O)N1CC[C@@H](Nc2nccc(Nc3ncc(C(=O)Nc4c(C)cccc4C)s3)n2)C1 [Example I-4]
AMPKa1, AMPKa2
  % change of MS signal compared to control sample: −40.3%
BARK1
  % change of MS signal compared to control sample: −8.1%
BRAF
  % change of MS signal compared to control sample: 17.8%
CDC2
  % change of MS signal compared to control sample: −24.9%
CDK4
  % change of MS signal compared to control sample: 6.8%
CK1a
  % change of MS signal compared to control sample: −41.3%
CK1g2
  % change of MS signal compared to control sample: −4.5%
CK2a1
  % change of MS signal compared to control sample: 24.6%
CSK
  % change of MS signal compared to control sample: 35.7%
[1]
  % change of MS signal compared to control sample: 10.0%
Erk2
  % change of MS signal compared to control sample: −3.2%
FGR
  % change of MS signal compared to control sample: 87.0%
GCN2
  % change of MS signal compared to control sample: −11.0% and −5.7%
IKKa
  % change of MS signal compared to control sample: 6.4%
IKKe
  % change of MS signal compared to control sample: 2.2%
IRAK1
  % change of MS signal compared to control sample: 20.3%
JNK1, JNK2, JNK3
  % change of MS signal compared to control sample: 6.3%
LCK
  % change of MS signal compared to control sample: 96.1%
LKB1
  % change of MS signal compared to control sample: −4.5%
MAP3K15, MAP3K5, MAP3K6
  % change of MS signal compared to control sample: 2.8%
MAP3K3
  % change of MS signal compared to control sample: −0.7%
MARK1, MARK2
  % change of MS signal compared to control sample: 17.1%
MARK2
  % change of MS signal compared to control sample: 3.6%
MAST3
  % change of MS signal compared to control sample: 2.0%
MELK
  % change of MS signal compared to control sample: −11.7%
MST1
  % change of MS signal compared to control sample: 7.0%
NEK1
  % change of MS signal compared to control sample: 7.3%
NEK3
  % change of MS signal compared to control sample: 3.5%
NEK6, NEK7
  % change of MS signal compared to control sample: 3.7%
PAN3
  % change of MS signal compared to control sample: −29.0%
PIK3CD
  % change of MS signal compared to control sample: −14.5%
PIK3CG
  % change of MS signal compared to control sample: −46.3%
PIP4K2C
  % change of MS signal compared to control sample: 71.0% and 43.0%
RSK1 domain2
  % change of MS signal compared to control sample: 12.5%
RSK3 domain1
  % change of MS signal compared to control sample: −26.9%
RSK4 domain1
  % change of MS signal compared to control sample: 3.5%
SNRK
  % change of MS signal compared to control sample: 35.3% and 61.9%
TLK2
  % change of MS signal compared to control sample: 8.7%
Wnk1, Wnk2
  % change of MS signal compared to control sample: 7.8%
p38b
  % change of MS signal compared to control sample: −29.6%
p70S6Kb
  % change of MS signal compared to control sample: −72.4%

## C=CC(=O)N1CCCCC(Nc2nccc(Nc3ncc(C(=O)Nc4c(C)cccc4C)s3)n2)C1 (stereo not shown) [Example I-7]
AMPKa1, AMPKa2
  % change of MS signal compared to control sample: −20.7% and −22.3%
BARK1
  % change of MS signal compared to control sample: −29.7%
BRAF
  % change of MS signal compared to control sample: 21.7%
CDC2
  % change of MS signal compared to control sample: −16.2%
CDK4
  % change of MS signal compared to control sample: 16.7%
CK1a
  % change of MS signal compared to control sample: −0.7%
CK1g2
  % change of MS signal compared to control sample: −3.7%
CK2a1
  % change of MS signal compared to control sample: 14.3%
CSK
  % change of MS signal compared to control sample: 76.5% and 75.7%
[1]
  % change of MS signal compared to control sample: 7.4%
Erk2
  % change of MS signal compared to control sample: −4.7%
FGR
  % change of MS signal compared to control sample: 94.7%
GCN2
  % change of MS signal compared to control sample: −13.3% and −6.3%
IKKa
  % change of MS signal compared to control sample: −3.5%
IKKe
  % change of MS signal compared to control sample: 0.4%
IRAK1
  % change of MS signal compared to control sample: 19.0%
JNK1, JNK2, JNK3
  % change of MS signal compared to control sample: −4.8%
LCK
  % change of MS signal compared to control sample: 96.5%
LKB1
  % change of MS signal compared to control sample: 1.2%
MAP3K15, MAP3K5, MAP3K6
  % change of MS signal compared to control sample: 4.0%
MAP3K3
  % change of MS signal compared to control sample: 42.8%
MARK1, MARK2
  % change of MS signal compared to control sample: 7.9%
MARK2
  % change of MS signal compared to control sample: 7.7%
MAST3
  % change of MS signal compared to control sample: −1.6%
MELK
  % change of MS signal compared to control sample: −11.0%
MST1
  % change of MS signal compared to control sample: 3.0%
NEK1
  % change of MS signal compared to control sample: 11.4%
NEK3
  % change of MS signal compared to control sample: 15.6%
NEK6, NEK7
  % change of MS signal compared to control sample: −8.4%
PAN3
  % change of MS signal compared to control sample: −0.2%
PIK3CD
  % change of MS signal compared to control sample: −19.1%
PIK3CG
  % change of MS signal compared to control sample: −51.9%
PIP4K2C
  % change of MS signal compared to control sample: 70.9% and 60.1%
RSK1 domain2
  % change of MS signal compared to control sample: 4.9%
RSK3 domain1
  % change of MS signal compared to control sample: −48.6%
RSK4 domain1
  % change of MS signal compared to control sample: −13.5%
SNRK
  % change of MS signal compared to control sample: 40.7% and 58.7%
TLK2
  % change of MS signal compared to control sample: 7.3%
Wnk1, Wnk2
  % change of MS signal compared to control sample: −8.6%
p38b
  % change of MS signal compared to control sample: −1.5%
p70S6Kb
  % change of MS signal compared to control sample: −42.7%
